{
  "source": "paper PMC8548588",
  "about": "“Cesium tolerance is enhanced by a chemical which binds to BETA-GLUCOSIDASE 23 in Arabidopsis thaliana” (Scientific Reports, 2021)",
  "biological_target": "T1, AtβGLU23 (BETA-GLUCOSIDASE 23, PYK10) (Arabidopsis thaliana, UniProt Q9SR37)",
  "T1 construct": "gene BGLU23; native protein from total protein extract of 11-day-old seedlings",
  "T1 sequence (Q9SR37 25-524)": "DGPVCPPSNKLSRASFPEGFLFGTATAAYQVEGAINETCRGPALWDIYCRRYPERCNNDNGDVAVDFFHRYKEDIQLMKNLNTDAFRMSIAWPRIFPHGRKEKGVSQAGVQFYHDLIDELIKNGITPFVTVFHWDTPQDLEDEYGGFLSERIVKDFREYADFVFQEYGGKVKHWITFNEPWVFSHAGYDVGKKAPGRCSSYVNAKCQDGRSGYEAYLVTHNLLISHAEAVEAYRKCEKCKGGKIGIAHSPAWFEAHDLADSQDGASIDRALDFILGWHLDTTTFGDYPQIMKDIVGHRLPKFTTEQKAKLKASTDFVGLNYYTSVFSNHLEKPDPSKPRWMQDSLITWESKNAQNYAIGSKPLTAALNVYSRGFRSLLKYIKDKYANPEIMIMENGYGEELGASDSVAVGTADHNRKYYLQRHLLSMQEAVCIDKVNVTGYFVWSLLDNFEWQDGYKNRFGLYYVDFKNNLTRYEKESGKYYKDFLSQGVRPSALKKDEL",
  "assay": "pull-down from plant extract with photo-cross-linked compound beads, SDS-PAGE, LC-MS/MS",
  "format": "binding",
  "conditions": "compound immobilised on photoaffinity-linker-coated agarose beads; 10 mM CsCl, pH 7.6, 4 °C, 18-24 h; control beads without compound",
  "data": [
    {"smiles": "Cc1cc(C(=O)Cn2cc(C(F)(F)F)ccc2=O)c(C)n1C(C)C", "note": "[CsToAcE1, 1-[2-[2,5-Dimethyl-1-(propan-2-yl)-1H-pyrrol-3-yl]-2-oxoethyl]-5-(trifluoromethyl)-1,2-dihydropyridin-2-one]", "values": [
      {"measurement": "pull-down from plant extract with photo-cross-linked compound beads, SDS-PAGE, L", "result": "CsToAcE1, binds to AtβGLU23"}
    ]}
  ]
}
